In the supplement of paper PMC7661543:
± gives the standard deviation of the averaged measurements.

System: BT-20
Assay: relative cell number vs DMSO control (72 h) (% of DMSO); higher = less growth inhibition (more cells)
Details: sgRNA knockout: sgNT, 100 nM
Procedure: (§1)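 QMAP-Seq: a pool of 5 breast cancer cell lines (ZR-75-1, SKBR3, HCC-38, MDA-MB-231, BT-20), each carrying 12 doxycycline-inducible Cas9 sgRNA perturbations (11 knockouts plus non-targeting sgNT), was treated with compounds for 72 h at four 10-fold doses (10 nM-10 uM or 1 nM-1 uM range). Barcodes were amplified and sequenced, and cell number was interpolated from 293T spike-in standard curves. The result is expressed as % of the median of DMSO wells. Two biological replicates.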

**Q.** Which relative cell number does the source give for S=c1nc[nH]c2nc[nH]c12 [6-Mercaptopurine] here?
**A.** 101 ± 4.8

Same assay, conditions: sgRNA knockout: sgNT, 1000 nM

**Q.** Which relative cell number does the source give for Cc1cnc(Nc2ccc(OCCN3CCCC3)cc2)nc1Nc1cccc(S(=O)(=O)NC(C)(C)C)c1 here?
**A.** 81.3 ± 12

**Q.** CN(C)CC[C@H](CSc1ccccc1)Nc1ccc(S(=O)(=O)NC(=O)c2ccc(N3CCN(Cc4ccccc4-c4ccc(Cl)cc4)CC3)cc2)cc1[N+](=O)[O-] [ABT737] was tested. Which relative cell number did it give?
**A.** 94.8 ± 13

**Q.** With O=P1(N(CCCl)CCCl)NCCCO1 (stereo not given) [Cyclophosphamide] as the compound, how does the relative cell number read?
**A.** 107 ± 5.6

**Q.** CCOC(=O)[C@@]1(CCCCCCOc2ccc(Cl)cc2)CO1 [Etomoxir] was tested. Which relative cell number did it give?
**A.** 122 ± 23

**Q.** With Cc1ccc(Nc2nccc(N(C)c3ccc4c(C)n(C)nc4c3)n2)cc1S(N)(=O)=O [Pazopanib] as the compound, how does the relative cell number read?
**A.** 110 ± 3.6

**Q.** With CC(C)C[C@H](NC(=O)[C@H](CCc1ccccc1)NC(=O)CN1CCOCC1)C(=O)N[C@@H](Cc1ccccc1)C(=O)N[C@@H](CC(C)C)C(=O)[C@@]1(C)CO1 [Carfilzomib] as the compound, how does the relative cell number read?
**A.** 14.6 ± 1.8

**Q.** Which relative cell number does the source give for N.N.[Cl][Pt][Cl] [Cisplatin] here?
**A.** 111 ± 5.1

**Q.** For Cc1cc2c(C(C)C)c(O)c(O)c(C=O)c2c(O)c1-c1c(C)cc2c(C(C)C)c(O)c(O)c(C=O)c2c1O [Gossypol], which relative cell number is on record?
**A.** 113 ± 39

**Q.** For COc1cccc2c1C(=O)c1c(O)c3c(c(O)c1C2=O)C[C@@](O)(C(=O)CO)C[C@@H]3O[C@H]1C[C@H](N)[C@H](O)[C@H](C)O1 [Doxorubicin], which relative cell number is on record?
**A.** 29.9 ± 5.7

**Q.** With CCC(C)SSc1ncc[nH]1 (stereo not given) [PX12] as the compound, how does the relative cell number read?
**A.** 100 ± 4.2

**Q.** CC(=O)Nc1nc(C)c(S(=O)(=O)Nc2ccc(C(O)(C(F)(F)F)C(F)(F)F)cc2)s1 [SR1001] was tested. Which relative cell number did it give?
**A.** 97.8 ± 18

**Q.** How did the relative cell number turn out when CN1CCc2c(c3ccccc3n2Cc2ccc(C(=O)NO)cc2)C1 [TubastatinA] was run?
**A.** 116.9 ± 0.46

**Q.** With CCOc1ccccc1-n1c(C(C)N2CCN(C(=O)COc3ccc(Cl)cc3)CC2)nc2ccccc2c1=O (stereo not given) [Erastin] as the compound, how does the relative cell number read?
**A.** 99.8 ± 1.4

**Q.** For CN1C(=O)C(Cc2c[nH]c3ccccc23)NC1=S (stereo not given) [Necrostatin1], which relative cell number is on record?
**A.** 82.9 ± 0.53

**Q.** O=C1NC(=O)[C@@H](c2cn3c4c(cccc24)CCC3)[C@@H]1c1c[nH]c2ccccc12 [Tivantinib] was tested. Which relative cell number did it give?
**A.** 53 ± 6.2

**Q.** Which relative cell number does the source give for CCn1c(=O)c2c(nc(/C=C/c3ccc(OC)c(OC)c3)n2C)n(CC)c1=O [Istradefylline] here?
**A.** 94.8 ± 12

**Q.** Which relative cell number does the source give for COc1ccc(-c2ccc3c(N4CCOCC4)nc(N4C[C@@H](C)O[C@@H](C)C4)nc3n2)cc1CO here?
**A.** 77.5 ± 5.5

**Q.** With C[C@]12CC[C@@H]3c4ccc(O)cc4C[C@@H](CCCCCCCCC[S+]([O-])CCCC(F)(F)C(F)(F)F)[C@H]3[C@@H]1CC[C@@H]2O (stereo not given in full) [Fulvestrant] as the compound, how does the relative cell number read?
**A.** 86.6 ± 16

**Q.** How did the relative cell number turn out when COC(=O)Nc1nc2cc(C(=O)c3ccccc3)ccc2[nH]1 [Mebendazole] was run?
**A.** 25 ± 7.1

**Q.** With O=C(NOCC(O)CO)c1cc(Br)c(F)c(F)c1Nc1ccc(I)cc1F (stereo not given) as the compound, how does the relative cell number read?
**A.** 94.1 ± 9.3

**Q.** Which relative cell number does the source give for OCc1ccc(-c2ccc(-c3ccc(CO)s3)o2)s1 here?
**A.** 24.9 ± 1.5

**Q.** For CC(=O)Nc1cccc(-n2c(=O)n(C3CC3)c(=O)c3c(Nc4ccc(I)cc4F)n(C)c(=O)c(C)c32)c1 [Trametinib], which relative cell number is on record?
**A.** 70.5 ± 16

**Q.** For C=CCn1c(=O)c2cnc(Nc3ccc(N4CCN(C)CC4)cc3)nc2n1-c1cccc(C(C)(C)O)n1 [MK1775], which relative cell number is on record?
**A.** 42.9 ± 2.7

**Q.** Which relative cell number does the source give for S=c1nc[nH]c2nc[nH]c12 [6-Mercaptopurine] here?
**A.** 85.3 ± 6

Same assay, conditions: sgRNA knockout: sgNT, 10000 nM

**Q.** How did the relative cell number turn out when Cc1cnc(Nc2ccc(OCCN3CCCC3)cc2)nc1Nc1cccc(S(=O)(=O)NC(C)(C)C)c1 was run?
**A.** 42.5 ± 4.4

**Q.** CN(C)CC[C@H](CSc1ccccc1)Nc1ccc(S(=O)(=O)NC(=O)c2ccc(N3CCN(Cc4ccccc4-c4ccc(Cl)cc4)CC3)cc2)cc1[N+](=O)[O-] [ABT737] was tested. Which relative cell number did it give?
**A.** 69.2 ± 5.1

**Q.** O=P1(N(CCCl)CCCl)NCCCO1 (stereo not given) [Cyclophosphamide] was tested. Which relative cell number did it give?
**A.** 114 ± 8.3

**Q.** Which relative cell number does the source give for CCOC(=O)[C@@]1(CCCCCCOc2ccc(Cl)cc2)CO1 [Etomoxir] here?
**A.** 107 ± 9.7

**Q.** Which relative cell number does the source give for Cc1ccc(Nc2nccc(N(C)c3ccc4c(C)n(C)nc4c3)n2)cc1S(N)(=O)=O [Pazopanib] here?
**A.** 73.8 ± 16

**Q.** Which relative cell number does the source give for N.N.[Cl][Pt][Cl] [Cisplatin] here?
**A.** 89 ± 2.7

**Q.** With Cc1cc2c(C(C)C)c(O)c(O)c(C=O)c2c(O)c1-c1c(C)cc2c(C(C)C)c(O)c(O)c(C=O)c2c1O [Gossypol] as the compound, how does the relative cell number read?
**A.** 44.9 ± 2

**Q.** COc1cccc2c1C(=O)c1c(O)c3c(c(O)c1C2=O)C[C@@](O)(C(=O)CO)C[C@@H]3O[C@H]1C[C@H](N)[C@H](O)[C@H](C)O1 [Doxorubicin] was tested. Which relative cell number did it give?
**A.** 16.4 ± 4.5

**Q.** For CCC(C)SSc1ncc[nH]1 (stereo not given) [PX12], which relative cell number is on record?
**A.** 99.6 ± 31

**Q.** With CC(=O)Nc1nc(C)c(S(=O)(=O)Nc2ccc(C(O)(C(F)(F)F)C(F)(F)F)cc2)s1 [SR1001] as the compound, how does the relative cell number read?
**A.** 116 ± 32

**Q.** How did the relative cell number turn out when CN1CCc2c(c3ccccc3n2Cc2ccc(C(=O)NO)cc2)C1 [TubastatinA] was run?
**A.** 81.4 ± 33

**Q.** With CCOc1ccccc1-n1c(C(C)N2CCN(C(=O)COc3ccc(Cl)cc3)CC2)nc2ccccc2c1=O (stereo not given) [Erastin] as the compound, how does the relative cell number read?
**A.** 40 ± 1.6

**Q.** CN1C(=O)C(Cc2c[nH]c3ccccc23)NC1=S (stereo not given) [Necrostatin1] was tested. Which relative cell number did it give?
**A.** 114 ± 14

**Q.** For O=C1NC(=O)[C@@H](c2cn3c4c(cccc24)CCC3)[C@@H]1c1c[nH]c2ccccc12 [Tivantinib], which relative cell number is on record?
**A.** 26 ± 1.1

**Q.** For CCn1c(=O)c2c(nc(/C=C/c3ccc(OC)c(OC)c3)n2C)n(CC)c1=O [Istradefylline], which relative cell number is on record?
**A.** 106 ± 8.2

**Q.** Which relative cell number does the source give for COc1ccc(-c2ccc3c(N4CCOCC4)nc(N4C[C@@H](C)O[C@@H](C)C4)nc3n2)cc1CO here?
**A.** 57.6 ± 7.1

**Q.** C[C@]12CC[C@@H]3c4ccc(O)cc4C[C@@H](CCCCCCCCC[S+]([O-])CCCC(F)(F)C(F)(F)F)[C@H]3[C@@H]1CC[C@@H]2O (stereo not given in full) [Fulvestrant] was tested. Which relative cell number did it give?
**A.** 110 ± 24

**Q.** COC(=O)Nc1nc2cc(C(=O)c3ccccc3)ccc2[nH]1 [Mebendazole] was tested. Which relative cell number did it give?
**A.** 20.6 ± 6.8

**Q.** For O=C(NOCC(O)CO)c1cc(Br)c(F)c(F)c1Nc1ccc(I)cc1F (stereo not given), which relative cell number is on record?
**A.** 83.5 ± 7.2

**Q.** How did the relative cell number turn out when OCc1ccc(-c2ccc(-c3ccc(CO)s3)o2)s1 was run?
**A.** 12.3 ± 6.7

**Q.** With CC(=O)Nc1cccc(-n2c(=O)n(C3CC3)c(=O)c3c(Nc4ccc(I)cc4F)n(C)c(=O)c(C)c32)c1 [Trametinib] as the compound, how does the relative cell number read?
**A.** 82.8 ± 37

**Q.** Which relative cell number does the source give for C=CCn1c(=O)c2cnc(Nc3ccc(N4CCN(C)CC4)cc3)nc2n1-c1cccc(C(C)(C)O)n1 [MK1775] here?
**A.** 31.7 ± 1.8

**Q.** How did the relative cell number turn out when S=c1nc[nH]c2nc[nH]c12 [6-Mercaptopurine] was run?
**A.** 62.7 ± 4.4

System: HCC-38
Assay: as above
Details: sgRNA knockout: sgNT, 1 nM
Procedure: as §1

**Q.** With CC(C)C[C@H](NC(=O)[C@H](CCc1ccccc1)NC(=O)CN1CCOCC1)C(=O)N[C@@H](Cc1ccccc1)C(=O)N[C@@H](CC(C)C)C(=O)[C@@]1(C)CO1 [Carfilzomib] as the compound, how does the relative cell number read?
**A.** 76.3 ± 6.3

Same assay, conditions: sgRNA knockout: sgNT, 10 nM

**Q.** With Cc1cnc(Nc2ccc(OCCN3CCCC3)cc2)nc1Nc1cccc(S(=O)(=O)NC(C)(C)C)c1 as the compound, how does the relative cell number read?
**A.** 99.1 ± 2.6

**Q.** Which relative cell number does the source give for CN(C)CC[C@H](CSc1ccccc1)Nc1ccc(S(=O)(=O)NC(=O)c2ccc(N3CCN(Cc4ccccc4-c4ccc(Cl)cc4)CC3)cc2)cc1[N+](=O)[O-] [ABT737] here?
**A.** 104 ± 3.7

**Q.** How did the relative cell number turn out when O=P1(N(CCCl)CCCl)NCCCO1 (stereo not given) [Cyclophosphamide] was run?
**A.** 89.7 ± 13

**Q.** With CCOC(=O)[C@@]1(CCCCCCOc2ccc(Cl)cc2)CO1 [Etomoxir] as the compound, how does the relative cell number read?
**A.** 94.85 ± 0.42

**Q.** How did the relative cell number turn out when Cc1ccc(Nc2nccc(N(C)c3ccc4c(C)n(C)nc4c3)n2)cc1S(N)(=O)=O [Pazopanib] was run?
**A.** 95.4 ± 1.7

**Q.** CC(C)C[C@H](NC(=O)[C@H](CCc1ccccc1)NC(=O)CN1CCOCC1)C(=O)N[C@@H](Cc1ccccc1)C(=O)N[C@@H](CC(C)C)C(=O)[C@@]1(C)CO1 [Carfilzomib] was tested. Which relative cell number did it give?
**A.** 31.4 ± 4.7

**Q.** For N.N.[Cl][Pt][Cl] [Cisplatin], which relative cell number is on record?
**A.** 114 ± 20

**Q.** Cc1cc2c(C(C)C)c(O)c(O)c(C=O)c2c(O)c1-c1c(C)cc2c(C(C)C)c(O)c(O)c(C=O)c2c1O [Gossypol] was tested. Which relative cell number did it give?
**A.** 96.4 ± 16

**Q.** With COc1cccc2c1C(=O)c1c(O)c3c(c(O)c1C2=O)C[C@@](O)(C(=O)CO)C[C@@H]3O[C@H]1C[C@H](N)[C@H](O)[C@H](C)O1 [Doxorubicin] as the compound, how does the relative cell number read?
**A.** 74 ± 5.4

**Q.** With CCC(C)SSc1ncc[nH]1 (stereo not given) [PX12] as the compound, how does the relative cell number read?
**A.** 113 ± 8.1

**Q.** CC(=O)Nc1nc(C)c(S(=O)(=O)Nc2ccc(C(O)(C(F)(F)F)C(F)(F)F)cc2)s1 [SR1001] was tested. Which relative cell number did it give?
**A.** 91.5 ± 2.2
